# Test results reported in US20070208026A1, “N-Containing Heteroaromatic Compounds As Modulators Of Ppars And Methods Of Treating Metabolic Disorders” (priority 2003, published 2007).
# What was measured:
# Assay in all cases: cell-based human PPAR-GAL4 chimera luciferase reporter assay in CV-1 cells
# [1] = target: T1, hPPAR δ (Homo sapiens, UniProt Q03181); conditions: PPAR LBD-GAL4 chimera, 24 hours treatment
# T1 construct: expressed in transfected cells; host or cells: CV-1 cells
# T1 sequence (Q03181 211-439 limits assumed): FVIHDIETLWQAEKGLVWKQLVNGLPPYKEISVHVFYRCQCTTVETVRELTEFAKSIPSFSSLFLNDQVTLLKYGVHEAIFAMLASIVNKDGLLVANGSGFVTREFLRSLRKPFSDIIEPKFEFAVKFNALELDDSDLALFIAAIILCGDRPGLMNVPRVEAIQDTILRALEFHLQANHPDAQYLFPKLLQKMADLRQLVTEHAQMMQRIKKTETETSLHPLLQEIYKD
# Method: (§1) The compounds were evaluated in a cell-based assay to determine their human PPAR activity (See Tables 2 and 3). The plasmids for human PPAR-GAL4 chimeras were prepared by fusing amplified cDNAs encoding the LBDs of PPARs to the C-terminal end of the yeast GAL4 DNA binding domain. CV-1 cells were grown and transiently tranfected with PerFectin (GTS, San Diego, Calif.) according to the manufacturer's protocol along with a luciferase reporter. Eight hours after transfection, 50 μl of cells were replated into 384 well plates ([…]). Sixteen hours after replating, cells were treated with either compounds or 1% DMSO for 24 hours. Luciferase activity was then assayed with Britelite (Perkin Elmer) following the manufacturer's protocol and measured with either the Perkin Elmer Viewlux or Molecular Devices Acquest.
# [2] = target: T2, hPPAR γ (Homo sapiens, UniProt P37231); conditions: PPAR LBD-GAL4 chimera, 24 hours treatment
# T2 construct: expressed in transfected cells; host or cells: CV-1 cells
# T2 sequence (P37231 238-503 limits assumed): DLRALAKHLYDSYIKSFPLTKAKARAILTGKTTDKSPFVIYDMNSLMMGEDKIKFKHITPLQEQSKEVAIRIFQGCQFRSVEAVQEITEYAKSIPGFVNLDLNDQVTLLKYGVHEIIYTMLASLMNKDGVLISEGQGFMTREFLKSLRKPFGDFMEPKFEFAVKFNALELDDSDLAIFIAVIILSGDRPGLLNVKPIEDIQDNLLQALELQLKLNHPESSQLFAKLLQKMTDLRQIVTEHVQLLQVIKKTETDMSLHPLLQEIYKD
# Method: as §1
# [3] = target: T3, hPPAR α (Homo sapiens, UniProt Q07869); conditions: PPAR LBD-GAL4 chimera, 24 hours treatment; for EC50: read-out: hPPAP α (EC50)
# T3 construct: expressed in transfected cells; host or cells: CV-1 cells
# T3 sequence (Q07869 239-466 limits assumed): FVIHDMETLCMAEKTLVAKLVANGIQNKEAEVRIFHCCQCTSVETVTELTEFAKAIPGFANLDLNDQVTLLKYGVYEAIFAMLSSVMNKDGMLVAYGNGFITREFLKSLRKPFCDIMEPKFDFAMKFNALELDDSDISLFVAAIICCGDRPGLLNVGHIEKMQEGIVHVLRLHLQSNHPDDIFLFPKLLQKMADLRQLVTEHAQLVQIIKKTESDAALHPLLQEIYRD
# Method: as §1
SMILES,EC50 [1],EC50 [2],EC50 [3],hPPAR δ (EC50) [1],hPPAP α (EC50) [3]
CCc1cnc(N(CCCOc2cccc3ccc(C(=O)O)nc23)Cc2ccc(C(F)(F)F)cc2C(F)(F)F)nc1,> 100 µM,1 to 100 µM,> 100 µM,,
CCCCN(CCCOc1ccc2[nH]cc(CC(=O)O)c2c1)c1ncc(CC)cn1,> 100 µM,1 to 100 µM,> 100 µM,,
CCCCN(CCCOc1ccc2[nH]cc(CC(=O)O)c2c1)c1ccccn1,> 100 µM,1 to 100 µM,> 100 µM,,
CCCCN(CCCOc1ccc2[nH]cc(CC(=O)O)c2c1)c1nc2ccccc2s1,1 to 100 µM,1 to 100 µM,> 100 µM,,
CCCCN(CCCOc1ccc2[nH]cc(CC(=O)O)c2c1)c1nc2ccccc2o1,1 to 100 µM,1 to 100 µM,> 100 µM,,
CCCCN(CCCOc1nc2ccccc2nc1C(=O)O)c1ncc(CC)cn1,1 to 100 µM,1 to 100 µM,> 100 µM,,
CCCCN(CCCOc1nc2ccccc2nc1C(=O)O)c1ccccn1,> 100 µM,1 to 100 µM,> 100 µM,,
CCCCN(CCCOc1nc2ccccc2nc1C(=O)O)c1nc2ccccc2s1,> 100 µM,1 to 100 µM,> 100 µM,,
CCCCN(CCCOc1nc2ccccc2nc1C(=O)O)c1nc2ccccc2o1,> 100 µM,1 to 100 µM,> 100 µM,,
O=C(O)c1nc2ccccc2nc1OCCCN(Cc1ccc(C(F)(F)F)cc1)c1nc2ccccc2s1,> 100 µM,> 100 µM,> 100 µM,,
CCCCN(CCCOc1cncc(C(=O)O)c1)c1ccccn1,> 100 µM,1 to 100 µM,> 100 µM,,
CCCCN(CCCOc1cncc(C(=O)O)c1)c1nc2ccccc2o1,> 100 µM,1 to 100 µM,> 100 µM,,
O=C(O)c1cncc(OCCCN(Cc2ccc(C(F)(F)F)cc2C(F)(F)F)c2nc3ccccc3o2)c1,> 100 µM,1 to 100 µM,> 100 µM,,
O=C(O)c1cncc(OCCCN(Cc2ccc(C(F)(F)F)cc2C(F)(F)F)c2nc3ccccc3s2)c1,> 100 µM,1 to 100 µM,> 100 µM,,
CCCCN(CCCOc1cccc(C(=O)O)n1)c1ccccn1,> 100 µM,1 to 100 µM,> 100 µM,,
CCCCN(CCCOc1cccc(C(=O)O)n1)c1nc2ccccc2s1,> 100 µM,1 to 100 µM,> 100 µM,,
O=C(O)c1cccc(OCCCN(Cc2ccc(C(F)(F)F)cc2)c2nc3ccccc3s2)n1,> 100 µM,< 1 µM,> 100 µM,,
O=C(O)c1cccc(OCCCN(Cc2ccc(C(F)(F)F)cc2C(F)(F)F)c2nc3ccccc3o2)n1,> 100 µM,> 100 µM,< 1 µM,,
CCCCN(CCCOc1cccc(C(=O)O)n1)c1nc2ccccc2o1,> 100 µM,< 1 µM,1 to 100 µM,,
O=C(O)c1cccc(OCCCN(Cc2ccc(C(F)(F)F)cc2C(F)(F)F)c2ccccn2)n1,> 100 µM,< 1 µM,1 to 100 µM,,
O=C(O)c1cccc(OCCCN(Cc2ccc(C(F)(F)F)cc2C(F)(F)F)c2nc3ccccc3s2)n1,> 100 µM,< 1 µM,< 1 µM,,

# Now from value to compound:
EC50 [1],EC50 [2],EC50 [3],hPPAR δ (EC50) [1],hPPAP α (EC50) [3],SMILES
1 to 100 µM,< 1 µM,> 100 µM,,,CCc1cnc(N(CCCOc2ccc3[nH]cc(CC(=O)O)c3c2)Cc2ccc(C(F)(F)F)cc2C(F)(F)F)nc1
,< 1 µM,1 to 100 µM,B/C,,CCc1cnc(N(CCCOc2ccc3c(c2)c(CC(=O)O)cn3C)Cc2ccc(C(F)(F)F)cc2C(F)(F)F)nc1
< 1 µM,< 1 µM,> 100 µM,,,O=C(O)Cc1c[nH]c2ccc(OCCCN(Cc3ccc(C(F)(F)F)cc3C(F)(F)F)c3nc4ccccc4o3)cc12
1 to 100 µM,< 1 µM,> 100 µM,,,O=C(O)Cc1c[nH]c2ccc(OCCCN(Cc3ccc(C(F)(F)F)cc3C(F)(F)F)c3ccccn3)cc12
> 100 µM,< 1 µM,> 100 µM,,,O=C(O)Cc1c[nH]c2ccc(OCCCN(Cc3ccc(C(F)(F)F)cc3C(F)(F)F)c3nc4ccccc4s3)cc12
> 100 µM,< 1 µM,> 100 µM,,,CCc1cnc(N(CCCOc2nc3ccccc3nc2C(=O)O)Cc2ccc(C(F)(F)F)cc2C(F)(F)F)nc1
> 100 µM,< 1 µM,> 100 µM,,,O=C(O)c1nc2ccccc2nc1OCCCN(Cc1ccc(C(F)(F)F)cc1C(F)(F)F)c1nc2ccccc2o1
> 100 µM,< 1 µM,> 100 µM,,,O=C(O)c1nc2ccccc2nc1OCCCN(Cc1ccc(C(F)(F)F)cc1C(F)(F)F)c1ccccn1
> 100 µM,< 1 µM,> 100 µM,,,O=C(O)c1nc2ccccc2nc1OCCCN(Cc1ccc(C(F)(F)F)cc1C(F)(F)F)c1nc2ccccc2s1
1 to 100 µM,< 1 µM,,,B/C,CCc1cnc(N(CCCOc2cncc(C(=O)O)c2)Cc2ccc(C(F)(F)F)cc2C(F)(F)F)nc1
> 100 µM,< 1 µM,> 100 µM,,,CCc1cnc(N(CCCOc2ncc(C(=O)O)cc2Cl)Cc2ccc(C(F)(F)F)cc2C(F)(F)F)nc1
> 100 µM,< 1 µM,> 100 µM,,,CCCCN(CCCOc1cncc(C(=O)O)c1)c1ncc(CC)cn1
> 100 µM,< 1 µM,> 100 µM,,,CCCCN(CCCOc1cncc(C(=O)O)c1)c1nc2ccccc2s1
> 100 µM,< 1 µM,1 to 100 µM,,,O=C(O)c1cncc(OCCCN(Cc2ccc(C(F)(F)F)cc2)c2nc3ccccc3s2)c1
1 to 100 µM,< 1 µM,1 to 100 µM,,,O=C(O)c1cncc(OCCCN(Cc2ccc(C(F)(F)F)cc2C(F)(F)F)c2ccccn2)c1
> 100 µM,< 1 µM,,,A/B,CCc1cnc(N(CCCOc2cccc(C(=O)O)n2)Cc2ccc(C(F)(F)F)cc2C(F)(F)F)nc1
1 to 100 µM,< 1 µM,1 to 100 µM,,,CCCCN(CCCOc1cccc(C(=O)O)n1)c1ncc(CC)cn1
